In this experiment the test system is Lumbricus terrestris. Put plainly: Feeding experiment with Lumbricus terrestris (Canadian night crawler), cartons of one dozen worms plus bedding. Type of experiment: in vivo. The settings on record: Carton 1. As to the method: The first experiment was conducted with Lumbricus terrestris. Lumbricus terrestris typically measures from 90-300 mm by 6-10 mm having a dark anterior and a pale flattened posterior. These worms live in an anecic habit meaning that they build permanent, vertical burrows that extend typically 2.5 m into the soil. Such worms feed in decaying organic material and grow and breed very slowly compared to other worms. This worm must have the burrow to return to and simply won't perform well in a worm bin. In their natural habitat such worms can live up to six years.
In the experiment, five cartons containing one dozen worms plus bedding each were kept in the refrigerator at 36° F. to 40° F. prior to the beginning the experiment. After refrigeration the following compounds were added to the specified cartons. Carton 1 was treated with a stock solution of 5 ml xanthene acid yellow 73 from a stock solution of 0.5 g xanthene acid yellow 73 in 500 ml distilled water. Carton 2 was treated with 5 grams of a stock mixture having 40 grams corn meal and 1 gram xanthene acid yellow 73. This mixture was simply added to Carton 2 and was not agitated. Carton 3 was treated with 5 grams of the same stock mixture and shaken gently to evenly disperse the mixture in Container 3. Carton 4 was treated with 5 grams from a mixture of 40 grams corn meal and 2 grams xanthene acid yellow 73 and was not agitated. […]

In the case of `O=C([O-])c1ccccc1-c1c2ccc(=O)cc-2oc2cc([O-])ccc12.[Na+].[Na+]` [xanthene acid yellow 73], the “color of the worm” value (5 ml of stock solution 0.5 g in 500 ml distilled water, after 7 days) was “no change in the color of the worm”. Further, the “condition of the worms” value (5 ml of stock solution, after six weeks) was “weak and dying from lack of nutrition”.
